Assay [1] relates to Rabbit Psoas myofibrils (skeletal myosin ATPase). Briefly: Myofibril ATPase assay, rabbit psoas (skeletal) myofibrils. It is filed as biochemical. To be noted: rabbit psoas myofibrils. The essentials:
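Rabbit psoas skeletal myofibrils in PIPES/CaCl2/EGTA pCa buffer, pH 7.0. ATPase rate followed by PK-LDH-coupled NADH loss at 340 nm, read every 1.5–2 min for 75 min. Slopes normalized to vehicle (100%) and fitted to a 4-parameter logistic; values are Y75 (25% inhibition) or Y125 (25% activation) concentrations.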

The test system of assay [2] is Porcine atria myofibrils (atrial myosin ATPase). In words: Myofibril ATPase assay, porcine atria myofibrils. The assay is classed as biochemical. To be noted: porcine atria myofibrils. The essentials: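 Coupled PK-LDH reaction links ADP from myosin ATPase to NADH loss, read at 340 nm every 1.5-2 min for 75 min. Slopes (mAU/min) normalized to vehicle-only wells (100%) and fit to a 4-parameter logistic; Y75 is the concentration cutting activity by 25%, Y125 is reported for activators.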

In assay [3] the target is T1, Porcine ventricle myofibrils (ventricular myosin ATPase) (Sus scrofa, UniProt P79293).
T1 construct: Myofibrils from porcine cardiac muscle was isolated from the left ventricle of Yucatan minipigs; tissue Exemplar Genetics; host or cells: left ventricle of Yucatan minipigs, myofibrils prepared in house
T1 sequence (P79293 whole entry): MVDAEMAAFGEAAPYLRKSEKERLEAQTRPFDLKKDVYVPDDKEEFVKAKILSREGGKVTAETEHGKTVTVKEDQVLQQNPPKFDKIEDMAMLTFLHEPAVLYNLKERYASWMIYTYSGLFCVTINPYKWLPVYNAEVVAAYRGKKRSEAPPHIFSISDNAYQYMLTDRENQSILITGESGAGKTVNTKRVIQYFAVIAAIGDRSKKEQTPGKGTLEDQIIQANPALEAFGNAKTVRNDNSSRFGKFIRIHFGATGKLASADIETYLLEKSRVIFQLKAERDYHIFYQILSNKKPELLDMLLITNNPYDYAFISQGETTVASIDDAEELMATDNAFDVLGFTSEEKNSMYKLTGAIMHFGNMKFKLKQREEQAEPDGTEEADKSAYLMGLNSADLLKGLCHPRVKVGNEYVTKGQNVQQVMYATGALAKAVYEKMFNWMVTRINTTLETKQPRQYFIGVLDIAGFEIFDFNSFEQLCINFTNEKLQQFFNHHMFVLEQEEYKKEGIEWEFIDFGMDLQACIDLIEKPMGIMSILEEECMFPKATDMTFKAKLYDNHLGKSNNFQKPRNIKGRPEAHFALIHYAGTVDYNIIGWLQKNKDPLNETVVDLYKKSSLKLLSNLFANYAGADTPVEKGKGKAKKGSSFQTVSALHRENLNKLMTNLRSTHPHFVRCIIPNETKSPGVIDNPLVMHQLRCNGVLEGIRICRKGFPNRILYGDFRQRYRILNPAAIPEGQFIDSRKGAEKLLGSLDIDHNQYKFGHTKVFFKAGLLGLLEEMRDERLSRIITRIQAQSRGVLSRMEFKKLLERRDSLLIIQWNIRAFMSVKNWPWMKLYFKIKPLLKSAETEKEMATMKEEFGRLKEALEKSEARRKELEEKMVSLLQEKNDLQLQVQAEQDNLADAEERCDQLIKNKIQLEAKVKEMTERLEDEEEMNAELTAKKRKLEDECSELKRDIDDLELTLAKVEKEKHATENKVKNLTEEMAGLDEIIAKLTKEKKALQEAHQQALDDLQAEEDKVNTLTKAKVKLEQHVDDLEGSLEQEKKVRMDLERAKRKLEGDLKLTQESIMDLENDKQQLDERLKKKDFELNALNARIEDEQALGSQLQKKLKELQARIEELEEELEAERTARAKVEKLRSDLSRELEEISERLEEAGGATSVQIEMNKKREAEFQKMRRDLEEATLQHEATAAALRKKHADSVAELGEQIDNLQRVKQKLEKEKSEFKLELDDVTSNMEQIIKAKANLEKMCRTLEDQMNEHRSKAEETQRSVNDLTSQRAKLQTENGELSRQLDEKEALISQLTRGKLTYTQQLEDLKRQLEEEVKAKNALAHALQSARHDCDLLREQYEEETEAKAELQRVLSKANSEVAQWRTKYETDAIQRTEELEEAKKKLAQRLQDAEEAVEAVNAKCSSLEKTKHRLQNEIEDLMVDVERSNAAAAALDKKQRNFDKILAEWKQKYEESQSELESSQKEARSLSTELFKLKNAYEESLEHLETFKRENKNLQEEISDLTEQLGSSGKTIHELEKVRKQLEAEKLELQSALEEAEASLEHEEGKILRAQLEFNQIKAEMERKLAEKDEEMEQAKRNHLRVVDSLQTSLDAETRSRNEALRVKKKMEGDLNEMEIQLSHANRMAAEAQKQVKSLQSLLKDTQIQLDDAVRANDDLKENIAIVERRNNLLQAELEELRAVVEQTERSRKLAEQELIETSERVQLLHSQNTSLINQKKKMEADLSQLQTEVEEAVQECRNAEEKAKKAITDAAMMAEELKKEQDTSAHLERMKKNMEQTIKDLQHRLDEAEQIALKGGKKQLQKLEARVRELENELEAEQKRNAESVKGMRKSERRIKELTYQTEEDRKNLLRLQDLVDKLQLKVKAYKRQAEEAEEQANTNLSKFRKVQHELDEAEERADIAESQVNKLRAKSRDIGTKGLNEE
In words: Myofibril ATPase assay, porcine ventricle myofibrils. To be noted: porcine ventricle myofibrils. The assay is classed as biochemical, porcine (Yucatan minipigs). The essentials:
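ATPase activity of porcine left-ventricular myofibrils is tracked as the slope of NADH loss at 340 nm through a PK/LDH couple. Values are the concentrations that bring activity to 75% (inhibitors) or 125% (activators) of vehicle.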

Setting [4] is: Y75 value (75% activity relative to no compound).

Structures are written as SMILES.

These results are taken from patent US12448369B2 (Edgewise Therapeutics, Inc., priority 2023, dated 2025).

For the compound `C[C@H](NC(=O)[C@H](C)c1cc2c(C#N)nccc2[nH]c1=O)c1ccc(F)cc1F` (single isomer, unassigned) [compound 360], the “Skeletal EC25” value in assay [1] (Y75 value) was 0.05 µM. Also, the “Atrial EC25” value in assay [2] (setting [4]) stood at 100.00 µM. For the same compound, the “Ventricular EC25” value in assay [3] (Y75 value) worked out at 100.00 µM.

For the compound `C[C@H](NC(=O)Cc1cc2cnccc2[nH]c1=O)c1ccc(F)cc1F` [compound 441], the “Skeletal EC25” value in assay [1] (Y75 value) is 1.88 µM. Further, in assay [2] (setting [4]), the “Atrial EC25” value came out at 3.48 µM. The “Ventricular EC25” value in assay [3] (Y75 value) was found to be 100.00 µM.

Turning to `C[C@H](NC(=O)[C@H](C)c1cc2c(F)c(F)ccc2[nH]c1=O)c1ccc(F)cc1F` (single isomer, unassigned) [compound 111], the “Skeletal EC25” value in assay [1] (Y75 value (no ‡ mark)) was 0.11 µM. Moreover, in assay [2] (Y75 value (no ‡ mark)), the “Atrial EC25” value came to 0.10 µM. Further, the “Ventricular EC25” value in assay [3] (Y75 value (no ‡ mark)) was 100.00 µM.

Consider `Cc1nccc2[nH]c(=O)c(CC(=O)N[C@@H]3COc4cc(C#N)cc(F)c43)c(C)c12` (single isomer, unassigned) [compound 177], for which the “Skeletal EC25” value in assay [1] (Y75 value) is 0.02 µM. In assay [2] (setting [4]), the “Atrial EC25” value was found to be 0.06 µM. Besides, the “Ventricular EC25” value in assay [3] (Y75 value) is 0.09 µM.

Regarding `C[C@@H](NC(=O)C(F)(F)c1cc2c(F)c(F)ccc2[nH]c1=O)c1ncc(C#N)cn1` (single isomer, unassigned) [compound 2545], the “Skeletal EC25” value in assay [1] (Y75 value (no ‡ mark)) is 0.13 µM. Also, the “Atrial EC25” value in assay [2] (Y75 value (no ‡ mark)) is 7.98 µM. The “Ventricular EC25” value in assay [3] (Y75 value (no ‡ mark)) came to 1.22 µM.

In the case of `N#Cc1cnc2c(c1)CC[C@H]2NC(=O)C1(c2cc3c(F)c(F)ccc3[nH]c2=O)CC1` (single isomer, unassigned) [compound 4823], the “Skeletal EC25” value in assay [1] (Y75 value (no ‡ mark)) came out at 42.66 µM. For the same compound, the “Atrial EC25” value in assay [2] (Y75 value (no ‡ mark)) was 8.47 µM. Also, in assay [3] (Y75 value (no ‡ mark)), the “Ventricular EC25” value was 100.00 µM.

In the case of `CC#Cc1nccc2[nH]c(=O)c(CC(=O)N[C@@H](C)c3ccc(F)cc3F)c(C)c12` [compound 350], in assay [1] (Y75 value), the “Skeletal EC25” value was 0.06 µM. Besides, the “Atrial EC25” value in assay [2] (setting [4]) worked out at 0.99 µM. Moreover, the “Ventricular EC25” value in assay [3] (Y75 value) came out at 1.99 µM.

With `COc1nccc2[nH]c(=O)c(CC(=O)N[C@@H](C)c3ccc(F)cc3F)c(C(F)(F)F)c12` [compound 423], the “Skeletal EC25” value in assay [1] (Y75 value) stood at 0.34 µM. Besides, in assay [2] (setting [4]), the “Atrial EC25” value was determined as 100.00 µM. In assay [3] (Y75 value), the “Ventricular EC25” value was 100.00 µM.

With `COc1ccc([C@H](C)NC(=O)Cc2c(C)c3c(C)nccc3[nH]c2=O)cc1` (single isomer, unassigned) [compound 287], the “Skeletal EC25” value in assay [1] (Y75 value) amounted to 100.00 µM. In assay [2] (setting [4]), the “Atrial EC25” value was 100.00 µM. For the same compound, the “Ventricular EC25” value in assay [3] (Y75 value) stood at 100.00 µM.

`Cc1nccc2[nH]c(=O)c(CC(=O)N[C@H](CO)c3ncc(C#N)cc3F)c(C)c12` (single isomer, unassigned) [compound 247]: the “Skeletal EC25” value in assay [1] (Y75 value) was 4.60 µM. Further, in assay [2] (setting [4]), the “Atrial EC25” value turned out to be 34.93 µM. Besides, the “Ventricular EC25” value in assay [3] (Y75 value) is 100.00 µM.

On to `COc1ccc2[nH]c(=O)c(CC(=O)N[C@@H](C)c3ccc(F)cc3F)cc2c1C` [compound 92], for which the “Skeletal EC25” value in assay [1] (Y75 value (no ‡ mark)) amounted to 2.83 µM. Further, in assay [2] (Y75 value (no ‡ mark)), the “Atrial EC25” value turned out to be 29.94 µM. Besides, the “Ventricular EC25” value in assay [3] (Y75 value (no ‡ mark)) amounted to 100.00 µM.

Regarding `Cc1c(CC(=O)N[C@@H](C)c2ccc(F)cc2F)c(=O)[nH]c2ccc(F)c(F)c12` [compound 116], in assay [1] (Y75 value (no ‡ mark)), the “Skeletal EC25” value was 0.02 µM. For the same compound, the “Atrial EC25” value in assay [2] (Y75 value (no ‡ mark)) was 0.04 µM. Besides, the “Ventricular EC25” value in assay [3] (Y75 value (no ‡ mark)) worked out at 0.13 µM.

For `Cc1cc([C@H](C)NC(=O)Cc2c(C)c3cc(F)ccc3[nH]c2=O)ncc1F` [compound 1061], the “Skeletal EC25” value in assay [1] (Y75 value (no ‡ mark)) was 100.00 µM. For the same compound, in assay [2] (Y75 value (no ‡ mark)), the “Atrial EC25” value amounted to 2.49 µM. The “Ventricular EC25” value in assay [3] (Y75 value (no ‡ mark)) came out at 100.00 µM.

Take `Cc1c(CC(=O)N[C@@H](C)c2ccc(C#N)cn2)c(=O)[nH]c2ccc(F)c(F)c12` [compound 46]: the “Skeletal EC25” value in assay [1] (Y75 value (no ‡ mark)) came to 0.02 µM. Besides, in assay [2] (Y75 value (no ‡ mark)), the “Atrial EC25” value was 0.24 µM. Also, the “Ventricular EC25” value in assay [3] (Y75 value (no ‡ mark)) is 0.12 µM.

Consider `Cc1nccc2[nH]c(=O)c(CC(=O)NC(CO)c3ncccc3F)c(C)c12` (stereo not drawn) [compound 237], for which the “Skeletal EC25” value in assay [1] (Y75 value) stood at 100.00 µM. In addition, the “Atrial EC25” value in assay [2] (setting [4]) was determined as 100.00 µM. Further, the “Ventricular EC25” value in assay [3] (Y75 value) is 100.00 µM.
